What was measured:
[1] = system: spared nerve injury (SNI) mice; conditions: SNI mice model of neuropathic pain; cited from earlier work
sigma-2 (σ2) site = sigma-2 (σ2) site (Homo sapiens, UniProt Q5BJF2); conditions: background statement; cited from earlier work
human σ1 receptor = target: T1, human σ1 receptor (Homo sapiens, UniProt Q99720); experiment: Human σ1 receptor radioligand assay; conditions: transfected HEK-293 membranes, 5 nM [3H](+)-pentazocine, 37° C. 120 minutes; + may also stand for 1-50% inhibition at 1 or 10 μM; read-out: Binding σ-1 Ki
T1 construct: expressed in transfected cells; host or cells: HEK-293
T1 sequence (Q99720 whole entry): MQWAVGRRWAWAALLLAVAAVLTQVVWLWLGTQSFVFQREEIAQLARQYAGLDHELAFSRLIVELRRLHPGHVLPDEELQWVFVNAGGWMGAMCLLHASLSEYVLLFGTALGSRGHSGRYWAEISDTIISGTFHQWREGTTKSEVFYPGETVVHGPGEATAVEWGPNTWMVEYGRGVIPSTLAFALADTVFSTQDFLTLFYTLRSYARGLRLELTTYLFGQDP
Procedure, shortened: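 Membranes (7 μg) were incubated with 5 nM [3H](+)-pentazocine in 50 mM Tris-HCl pH 8 for 120 min at 37° C. Non-specific binding was defined with 10 μM haloperidol. Values are % inhibition at 1 or 10 μM or Ki from five concentrations, read by filtration and scintillation counting.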

human σ2/TMEM97 receptor = target: T2, human σ2/TMEM97 receptor (Homo sapiens, UniProt Q5BJF2); experiment: Binding assay to human σ2/TMEM97 receptor; conditions: transfected HEK-293 membranes, 10 nM [3H]-DTG, 25° C. 120 minutes; + may also stand for 1-50% inhibition at 1 or 10 μM; read-out: Binding σ-2 Ki
T2 construct: expressed in transfected cells; host or cells: HEK-293
T2 sequence (Q5BJF2 whole entry): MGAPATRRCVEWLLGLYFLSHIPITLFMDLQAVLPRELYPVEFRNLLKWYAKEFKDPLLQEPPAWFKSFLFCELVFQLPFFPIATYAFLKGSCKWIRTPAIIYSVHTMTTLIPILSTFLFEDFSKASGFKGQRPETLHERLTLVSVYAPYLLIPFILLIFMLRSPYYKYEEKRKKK
Procedure, shortened: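 Membranes from transfected HEK-293 cells (15 µg) were incubated with 10 nM [3H]-DTG in 50 mM Tris-HCl pH 8.0 for 120 min at 25 °C, with 10 µM haloperidol defining non-specific binding. Filtration and scintillation counting followed. Compounds tested as % inhibition at 1 or 10 µM, or at five concentrations for Ki.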

Sequence of sigma-2 (σ2) site (Q5BJF2 whole entry): as above

| Compound | mechanical hypersensitivity [1] | affinity for the sigma-2 (σ2) site (sigma-2 (σ2) site) | Ki (human σ1 receptor) | Ki (human σ2/TMEM97 receptor) |
| --- | --- | --- | --- | --- |
| UKH-1114 | relieved mechanical hypersensitivity | – | – | – |
| (+)-SKF-10047 | – | micromolar affinity | – | – |
| CC(C)(C)CN1CCC2(CC1)CCN(S(=O)(=O)c1ccc(N3CCC(F)(F)CC3)nc1)CC2 [Example 99, 3-((6-(4,4-Difluoropiperidin-1-yl)pyridin-3-yl)sulfonyl)-9-neopentyl-3,9-diazaspiro[5.5]undecane] | – | – | 100 to 500 nM | < 100 nM |
| CN(CCc1ccccc1)C1CCN(S(=O)(=O)c2ccc(N3CCOCC3)nc2)CC1 [Example 15, N-Methyl-1-((6-morpholinopyridin-3-yl)sulfonyl)-N-phenethylpiperidin-4-amine] | – | – | > 1000 nM | 100 to 500 nM |
| N#Cc1cc(CN2CCC3(CC2)CCN(S(=O)(=O)c2ccc(N4CCOC4=O)nc2)CC3)ccc1F [Example 157, 2-Fluoro-5-((9-((6-(2-oxooxazolidin-3-yl)pyridin-3-yl)sulfonyl)-3,9-diazaspiro[5.5]undecan-3-yl)methyl)benzonitrile] | – | – | > 1000 nM | < 100 nM |
| CC(C)(C)CCN1CCCC2(CCN(S(=O)(=O)c3ccc(N4CCC(F)(F)CC4)nc3)CC2)C1 [Example 76, 9-((6-(4,4-Difluoropiperidin-1-yl)pyridin-3-yl)sulfonyl)-2-(3,3-dimethylbutyl)-2,9-diazaspiro[5.5]undecane] | – | – | < 100 nM | < 100 nM |
| CN(Cc1ccc(C#N)c(F)c1)C1CCN(S(=O)(=O)c2ccc(N3CCC(F)(F)CC3)nc2)CC1 [Example 173, 4-(((1-((6-(4,4-Difluoropiperidin-1-yl)pyridin-3-yl)sulfonyl)piperidin-4-yl)(methyl)amino)methyl)-2-fluorobenzonitrile] | – | – | > 1000 nM | < 100 nM |
| N#Cc1ccc(CN2CCCC3(CCN(S(=O)(=O)c4ccc(N5CCOC5=O)nc4)CC3)C2)cc1F [Example 151, 2-Fluoro-4-((9-((6-(2-oxooxazolidin-3-yl)pyridin-3-yl)sulfonyl)-2,9-diazaspiro[5.5]undecan-2-yl)methyl)benzonitrile] | – | – | 100 to 500 nM | < 100 nM |
| CN(Cc1cccnc1)[C@H]1CC[C@H](NS(=O)(=O)c2ccc(N3CCOCC3)nc2)CC1 [Example 59, N-((1r,4r)-4-(Methyl(pyridin-3-ylmethyl)amino)cyclohexyl)-6-morpholinopyridine-3-sulfonamide] | – | – | > 1000 nM | > 1000 nM |
